Reference: US7803816B2, “MCH receptor antagonists” (Hoffmann-La Roche Inc., priority 2005, dated 2010)
Counter-ions that a name gives are not always drawn. Like-named read-outs stand apart in the source and are kept apart here.

Molecular target: T1, recombinant human MCHR1-receptors (Homo sapiens, UniProt Q99705)
T1 construct: expressed in transfected cells
Assay: MCHR filter binding assay (competition binding)
Conditions: membranes from CHO-K1 cells expressing human MCHR1, 0.2 nM [Phe13,[125I]Tyr19]-MCH
Summary of the method: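 Membranes from CHO-K1 cells stably expressing human MCHR1 (2.8 μg) preincubated 15 min with competitor, then 1 h at rt with 0.2 nM [Phe13,[125I]Tyr19]-MCH in HEPES/CaCl2/BSA/phenanthroline/Triton buffer. Bound radioactivity counted after rapid filtration over PVP/BSA-treated GF/B filters.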

[1] = read-out: IC50 (nM), in vitro activity (binding assay)

T1 sequence (Q99705 whole entry): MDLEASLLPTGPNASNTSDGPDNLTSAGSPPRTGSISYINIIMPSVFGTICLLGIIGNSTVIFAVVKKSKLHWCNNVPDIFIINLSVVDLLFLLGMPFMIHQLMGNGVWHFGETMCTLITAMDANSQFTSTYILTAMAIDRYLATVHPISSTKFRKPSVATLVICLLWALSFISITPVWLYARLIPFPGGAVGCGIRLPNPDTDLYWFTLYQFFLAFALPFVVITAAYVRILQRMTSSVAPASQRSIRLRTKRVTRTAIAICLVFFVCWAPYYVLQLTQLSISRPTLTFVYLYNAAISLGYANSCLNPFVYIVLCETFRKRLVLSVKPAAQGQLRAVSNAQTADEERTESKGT

`CO[C@H]1CN(C[C@H]2Cc3ccc(Br)cc3C2)CC[C@@H]1n1c(C)nc2cc(C)ccc21` [Example 91, 1-[(3S,4S)-1-((S)-5-Bromo-indan-2-ylmethyl)-3-methoxy-piperidin-4-yl]-2,5-dimethyl-1H-benzoimidazole; dihydrochloride] gave an IC50 [1] of 20 to 200 nM.

For `COC(=O)Nc1ccc2c(c1)C[C@H](CN1CCC(n3c(C(C)(C)O)nc4cc(C)ccc43)CC1)C2` [Example 6, ((R)-2-{4-[2-(1-Hydroxy-1-methyl-ethyl)-5-methyl-benzoimidazol-1-yl]-piperidin-1-ylmethyl}-indan-5-yl)-carbamic acid methyl ester], the IC50 [1] was 20 to 200 nM.

`Cc1cc2ncn(C3CCN(CC4Cc5ccc(F)cc5C4)CC3)c2cc1F` (centres unmarked) [Example 106, 6-Fluoro-1-[1-(5-fluoro-indan-2-ylmethyl)-piperidin-4-yl]-5-methyl-1H-benzoimidazole] gave an IC50 [1] of 20 to 200 nM and an IC50 (read-out: IC50 (nM), selected in vitro MCH-R binding data) of 194 nM.

Molecule `Cc1ccc2c(c1)nc(C(C)C)n2[C@@H]1CCN(CC2Cc3ccccc3C2)C[C@H]1O` [Example 83, (3R,4R)-1-Indan-2-ylmethyl-4-(2-isopropyl-5-methyl-benzoimidazol-1-yl)-piperidin-3-ol] has an IC50 [1] of 200 to 5000 nM.

In the case of `CO[C@@H]1CN(CC2Cc3ccc(Br)cc3C2)CC[C@H]1n1c(C(C)(C)O)nc2cc(C)ccc21` (stereo in doubt) [Example 11, 2-{1-[(3R,4R)-1-((S)-5-Bromo-indan-2-ylmethyl)-3-methoxy-piperidin-4-yl]-5-methyl-1H-benzoimidazol-2-yl}-propan-2-ol], the IC50 [1] is reported as under 20 nM.

In the case of `Cc1ccc2c(c1)nc(C(C)(C)O)n2C1CCN(C[C@@H]2Cc3ccc(Br)cc3C2)CC1` [Example 96, 2-{1-[1-((R)-5-Bromo-indan-2-ylmethyl)-piperidin-4-yl]-5-methyl-1H-benzoimidazol-2-yl}-propan-2-ol], the IC50 [1] is reported as 20 to 200 nM.

`COC(=O)Nc1ccc2c(c1)C[C@H](CN1CCC(n3c(-c4ccccc4)nc4cc(C)ccc43)CC1)C2` [Example 42, {(R)-2-[4-(5-Methyl-2-phenyl-benzoimidazol-1-yl)-piperidin-1-ylmethyl]-indan-5-yl}-carbamic acid methyl ester] was tested, and the IC50 [1] was under 20 nM.

Molecule `CO[C@@H]1CN(C[C@H]2Cc3ccc(C#N)cc3C2)CC[C@H]1n1c(C)nc2cc(C)ccc21` [Example 85, (S)-2-[(3R,4R)-4-(2,5-Dimethyl-benzoimidazol-1-yl)-3-methoxy-piperidin-1-ylmethyl]-indan-5-carbonitrile] has an IC50 [1] of under 20 nM.

Work on `CO[C@@H]1CN(C[C@@H]2Cc3ccc(NC(=O)C(C)C)cc3C2)CC[C@H]1n1c(C)nc2cc(C)ccc21` [Example 16, N-{(R)-2-[(3R,4R)-4-(2,5-Dimethyl-benzoimidazol-1-yl)-3-methoxy-piperidin-1-ylmethyl]-indan-5-yl}-isobutyramide; dihydrochloride] yielded an IC50 [1] of 20 to 200 nM.

`Cc1ccc2c(c1)nc(C)n2[C@@H]1CCN(C[C@H]2Cc3ccc(NC(=O)C(C)C)cc3C2)C[C@H]1O` [Example 9, N-{(S)-2-[(3R,4R)-4-(2,5-Dimethyl-benzoimidazol-1-yl)-3-hydroxy-piperidin-1-ylmethyl]-indan-5-yl}-isobutyramide; trifluoroacetic acid salt] was tested, and the IC50 [1] was 20 to 200 nM.

For `CO[C@@H]1CN(CC2Cc3ccc(C)cc3C2)CC[C@H]1n1c(C(C)(C)O)nc2cc(C)ccc21` (stereo partly drawn) [Example 117, 2-{1-[(3R,4R)-3-Methoxy-1-(5-methyl-indan-2-ylmethyl)-piperidin-4-yl]-5-methyl-1H-benzoimidazol-2-yl}-propan-2-ol], the IC50 [1] was 20 to 200 nM.

With `CO[C@H]1CN(CC2Cc3cc(Cl)c(Cl)cc3C2)CC[C@@H]1n1c(C)nc2cc(C)ccc21` [Example 94, 1-[(3S,4S)-1-(5,6-Dichloro-indan-2-ylmethyl)-3-methoxy-piperidin-4-yl]-2,5-dimethyl-1H-benzoimidazole; dihydrochloride] the IC50 [1] was 200 to 5000 nM.

Work on `COC(=O)Nc1ccc2c(c1)C[C@H](CN1CC[C@H](n3c(C4CC4)nc4cc(C)ccc43)[C@@H](OC)C1)C2` [Example 71, {(R)-2-[(3S,4S)-4-(2-Cyclopropyl-5-methyl-benzoimidazol-1-yl)-3-methoxy-piperidin-1-ylmethyl]-indan-5-yl}-carbamic acid methyl ester] yielded an IC50 [1] of under 20 nM.

Molecule `Cc1ccc2c(c1)nc(C)n2[C@@H]1CCN(C[C@@H]2Cc3ccc(NC(=O)C(C)C)cc3C2)C[C@H]1CO` [Example 36, N-{(R)-2-[4-(2,5-Dimethyl-benzoimidazol-1-yl)-3-hydroxymethyl-piperidin-1-ylmethyl]-indan-5-yl}-isobutyramide] has an IC50 [1] of under 20 nM.

With `Cc1ccc2c(c1)nc(C)n2[C@@H]1CCN(C[C@@H]2Cc3ccc(NC(=O)C(C)C)cc3C2)C[C@H]1CO` (racemic) [Example 3, N-{(R)-2-[4-(2,5-Dimethyl-benzoimidazol-1-yl)-3-hydroxymethyl-piperidin-1-ylmethyl]-indan-5-yl}-isobutyramide] the IC50 [1] was under 20 nM.

With `CCCC(=O)Nc1ccc2c(c1)C[C@H](CN1CC[C@H](n3c(C4CC4)nc4cc(C)ccc43)[C@@H](OC)C1)C2` [Example 62, N-{(R)-2-[(3S,4S)-4-(2-Cyclopropyl-5-methyl-benzoimidazol-1-yl)-3-methoxy-piperidin-1-ylmethyl]-indan-5-yl}-butyramide] the IC50 [1] was under 20 nM.

`CO[C@H]1CN(CC2Cc3cc(F)c(F)cc3C2)CC[C@@H]1n1c(C(C)C)nc2cc(C)ccc21` [Example 100, 1-[(3S,4S)-1-(5,6-Difluoro-indan-2-ylmethyl)-3-methoxy-piperidin-4-yl]-2-isopropyl-5-methyl-1H-benzoimidazole] gave an IC50 [1] of 20 to 200 nM.

In the case of `CO[C@H]1CN(CC2Cc3ccc(Cl)cc3C2)CC[C@@H]1n1c(C)nc2cc(C)ccc21` (stereo partly drawn) [Example 19, 1-[(3S,4S)-1-(5-Chloro-indan-2-ylmethyl)-3-methoxy-piperidin-4-yl]-2,5-dimethyl-1H-benzoimidazole; dihydrochloride], the IC50 [1] is reported as 20 to 200 nM.

“1-((3R,4R)-1-Indan-2-ylmethyl-3-methoxy-piperidin-4-yl)-2,5-dimethyl-1H-benzoimidazole; dihydrochloride [Example 55]” was tested, and the IC50 [1] was 200 to 5000 nM.

In the case of `CCC(=O)Nc1ccc2c(c1)C[C@H](CN1CCC(n3c(C(C)C)nc4cc(C)ccc43)C(OC)C1)C2` (stereo partly drawn) [Example 59, N-{(R)-2-[4-(2-Isopropyl-5-methyl-benzoimidazol-1-yl)-3-methoxy-piperidin-1-ylmethyl]-indan-5-yl}-propionamide], the IC50 [1] is reported as under 20 nM.

Work on `COc1ccc2c(c1)CC(CN1CC[C@H](n3c(C)nc4cc(C)ccc43)[C@@H](OC)C1)C2` (stereo partly drawn) [Example 92, 1-[(3S,4S)-3-Methoxy-1-(5-methoxy-indan-2-ylmethyl)-piperidin-4-yl]-2,5-dimethyl-1H-benzoimidazole; dihydrochloride] yielded an IC50 [1] of 20 to 200 nM.

`CCc1nc2cc(C)ccc2n1C1CCN(CC2Cc3ccc(NC(=O)C(C)C)cc3C2)CC1` (centres unmarked) [Example 70, N-{2-[4-(2-Ethyl-5-methyl-benzoimidazol-1-yl)-piperidin-1-ylmethyl]-indan-5-yl}-isobutyramide] gave an IC50 [1] of under 20 nM.

`Cc1ccc2c(c1)nc(C)n2[C@@H]1CCN(C[C@@H]2Cc3ccc(NC(=O)C(C)C)cc3C2)C[C@H]1OCC(C)(C)O` [Example 21, N-{(R)-2-[(3R,4R)-4-(2,5-Dimethyl-benzoimidazol-1-yl)-3-(2-hydroxy-2-methyl-propoxy)-piperidin-1-ylmethyl]-indan-5-yl}-isobutyramide; dihydrochloride] showed an IC50 [1] of 20 to 200 nM.

Molecule `CO[C@@H]1CN(C[C@@H]2Cc3ccc(Br)cc3C2)CC[C@H]1n1c(C)nc2cc(C)ccc21` [Example 87, 1-[(3R,4R)-1-((R)-5-Bromo-indan-2-ylmethyl)-3-methoxy-piperidin-4-yl]-2,5-dimethyl-1H-benzoimidazole; dihydrochloride] has an IC50 [1] of 20 to 200 nM.

With `COC1CN(C[C@@H]2Cc3ccc(NC(=O)C(C)C)cc3C2)CCC1n1c(C(C)C)nc2cc(C)ccc21` (stereo partly drawn) [Example 68, N-{(R)-2-[4-(2-Isopropyl-5-methyl-benzoimidazol-1-yl)-3-methoxy-piperidin-1-ylmethyl]-indan-5-yl}-isobutyramide] the IC50 [1] was under 20 nM.

`CO[C@@H]1CN(C[C@H]2Cc3ccc(Br)cc3C2)CC[C@H]1n1c(C(C)(C)C)nc2cc(C)ccc21` [Example 26, 1-[(3R,4R)-1-((S)-5-Bromo-indan-2-ylmethyl)-3-methoxy-piperidin-4-yl]-2-tert-butyl-5-methyl-1H-benzoimidazole] gave an IC50 [1] of 20 to 200 nM.

With `CO[C@@H]1CN(CC2Cc3ccccc3C2)CC[C@H]1n1c(C)nc2cc(C)ccc21` [Example 50, 1-((3R,4R)-1-Indan-2-ylmethyl-3-methoxy-piperidin-4-yl)-2,5-dimethyl-1H-benzoimidazole] the IC50 [1] was 20 to 200 nM.

In the case of `Cc1ccc2c(c1)nc(C(C)(C)C)n2C1CCN(C[C@@H]2Cc3ccc(NC(=O)C(C)C)cc3C2)CC1` [Example 41, N-{(R)-2-[4-(2-tert-Butyl-5-methyl-benzoimidazol-1-yl)-piperidin-1-ylmethyl]-indan-5-yl}-isobutyramide], the IC50 [1] is reported as under 20 nM.

For `CCc1nc2cc(C)ccc2n1C1CCN(CC2Cc3ccc(NC(=O)C4CC4)cc3C2)CC1` (centres unmarked) [Example 74, Cyclopropanecarboxylic acid {2-[4-(2-ethyl-5-methyl-benzoimidazol-1-yl)-piperidin-1-ylmethyl]-indan-5-yl}-amide], the IC50 [1] was 20 to 200 nM.

In the case of `CCC(=O)Nc1ccc2c(c1)C[C@H](CN1CCC(n3c(CC)nc4cc(C)ccc43)C(OC)C1)C2` (stereo partly drawn) [Example 69, N-{(R)-2-[4-(2-Ethyl-5-methyl-benzoimidazol-1-yl)-3-methoxy-piperidin-1-ylmethyl]-indan-5-yl}-propionamide], the IC50 [1] is reported as under 20 nM.

`CC(=O)c1nc2cc(C)ccc2n1C1CCN(CC2Cc3ccccc3C2)CC1` [Example 82, 1-[1-(1-Indan-2-ylmethyl-piperidin-4-yl)-5-methyl-1H-benzoimidazol-2-yl]-ethanone] gave an IC50 [1] of 200 to 5000 nM.
